Source: US20260070887A1 (Shenzhen Zhongge Biological Technology Co., Ltd., priority 2022, published 2026)
pIC50: −log10 of the molar value. Read-outs that look alike come from different tables or passages of the source.

How the values were obtained:
[1] = tested on: HCC1954 cells; assay: HCC1954 cell proliferation (Cell Titer-Glo, 6 days); type: cell-based; conditions: KIF18A-sensitive tumor cells
Protocol: The inhibitory effect on the KIF18A target by the compounds of the present disclosure was evaluated by testing the inhibitory effect on proliferation of HCC1954 and HCC1395 cells by the compounds of the present disclosure.
HCC1954 (ATCC, CRL-2388) and HCC1395 (ATCC, CRL-2324) cells were cultured separately in RPMI-1640 complete medium (Gibco, A1049101) containing 20% fetal bovine serum (Gibco, 10099141C), 100 U penicillin, and 100 μg/mL streptomycin (Gibco, 15140-122). The Promega kit Cell Titer-Glo (Promega: G7572) was used in this method for test. • 1. HCC1954 (KIF18A-sensitive tumor cells) and HCC1395 (KIF18A-insensitive tumor cells) were cultured separately in T75 cell culture flasks (Corning, 430641), and the medium was placed in a 37° C., 5% CO2 incubator. • 2. When the cell density reached 70% to 80% (about 2 to 3 times per week), cells are passaged with trypsin (0.25% EDTA). • 3. The cell culture flask was taken out and the cells were separated by adding 2 mL of trypsin (0.25% EDTA source) for 5 minutes. • 4. Digestion was stopped by adding 8 mL of RPM1-1640 medium and the cell suspension was transferred to a centrifuge tube and centrifuged at 1000 rpm for 5 minutes. • 5. The cells were resuspended with 5 mL of RPMI-1640 medium. Cell density was adjusted to 5×10^3/mL (HCC1954), and 2.5×10^4/mL (HCC1395), respectively. • 6. 40 μL of cell solution was added to the 384-well plate (Corning, 3765). • 7. The 384-well plate was centrifuged at 1000 rpm for 1 minute. • 8. The cells were cultured overnight in a 37° C., 5% CO2 incubator. • 9. The next day, 40 nL of compound solution was added to the 384-well plate using Echo650. The plate was then placed in a 37° C., 5% CO2 incubator for 6 days. • 10. After 6 days, 20 μL of Cell-Titer-Glo (Promega, G7572) reagent was added per well. • 11. Luminescence values were measured using the EnVision Xcite Multilabel Reader (PerkinElmer, 2105-0020).
The percentage of inhibition of cell proliferation by the test compound at each concentration was calculated by comparing with the values of the control group (0.1% DMSO). The IC50 values of the compounds were obtained by concentration-inhibition rate nonlinear regression analysis of the test compounds using GraphPad Prism 9.

[2] = target: hERG channel (Homo sapiens (Human), UniProt Q12809); assay: hERG manual patch clamp test; type: cell-based
Protocol: The cells used in this test were the HEK293 cell line transfected with hERG cDNA and stably expressing the hERG channel (#60187, supplied by BPS, passages P3-P23 for experimental studies). The cells were cultured in a medium containing the following components: MEM medium containing 10% (v/v) inactivated fetal calf serum, 1 mM sodium pyruvate, 500 μg/ml geneticin, 0.1 mM non-essential amino acids, and 100 U/m1 penicillin/streptomycin. HEK293 hERG cells were grown in a culture dish containing the above-mentioned medium, cultured in a 37° C., 5% CO2 incubator, and passaged approximately three times per week, with the cell fusion rate between 40% and 80%. 24 to 48 hours prior to electrophysiological experiments, HEK293 hERG cells were transferred to 0.05 mg/ml PDL-pretreated slides, seeded at a density of 1×10^4 cells per well in a 48-well plate, and grown in the same medium and under the same culture conditions. The density of HEK293 hERG cells on each circular slide needs to reach the requirement that most cells are independent and individual. The extracellular fluid components used in the hERG assay were as follows (mM): 145 NaCl, 4 KCl, 2 CaCl2, 1 MgCl2, 10 glucose, and 10 HEPES (pH adjusted to 7.40 with NaOH). The intracellular fluid components were as follows (mM): 130 KCl, 2 MgCl2, 5 EGTA, 10 HEPES and 5 Na2ATP (pH adjusted to 7.25 with KOH). […] Prior to the experiment, the compound was first serially diluted with DMSO to prepare stock solutions at 10, 3, 1, 0.3, and 0.1 mM, which were then further diluted with extracellular fluid to achieve the final test concentrations (in μM). The final concentration of DMSO in compound solutions at various concentrations was between 0.1% and 0.3%. All compound solutions are routinely sonicated for 5 to 10 min and shaken sufficiently to ensure complete dissolution of the compound, and all test solutions are mixed well by rotation for at least 10 min.
Electrophysiological tests were performed using a manual patch clamp system (HEKA EPC-10 signal amplifier and digital conversion system, HEKA Electronics, Germany) for the recording of whole cell currents. The specific test method was described as follows: Circular slides with […] hERG cells growing on the surface were placed in an electrophysiological recording chamber under an inverted microscope. The recording chamber was continuously perfused with extracellular fluid (at approximately 1 mL/min). The conventional whole-cell patch-clamp technique was employed for current recordings throughout the experiment. If not specified, the experiments were carried out at normal room temperature (about 25° C.). The cells were clamped at −80 mV. The cell clamp voltage was depolarized to +30 mV to activate the hERG potassium channel, and then clamped to −50 mV after 5 seconds to eliminate inactivation and produce a tail current. The peak tail current value was used as a value for the magnitude of the hERG current. The potassium current of hERG recorded in the above steps was stabilized by continuous extracellular fluid perfusion in the recording chamber, and the drug to be tested was continuously perfused until the inhibitory effect of the drug on hERG currents had stabilized. The coincidence of the most recent three consecutive current recording traces was typically taken as the criteria for determining whether steady-state conditions were achieved.
Dose-response curves of the test compounds were plotted with % hERG inhibition rate as the y-axis and test compound concentration as the x-axis, to calculate the IC50 values.

[3] = HEK293 cells stably expressing hERG, whole-cell patch clamp, read-out: hERG IC50

Sequence of hERG channel (Q12809 whole entry, the tested form may be a part): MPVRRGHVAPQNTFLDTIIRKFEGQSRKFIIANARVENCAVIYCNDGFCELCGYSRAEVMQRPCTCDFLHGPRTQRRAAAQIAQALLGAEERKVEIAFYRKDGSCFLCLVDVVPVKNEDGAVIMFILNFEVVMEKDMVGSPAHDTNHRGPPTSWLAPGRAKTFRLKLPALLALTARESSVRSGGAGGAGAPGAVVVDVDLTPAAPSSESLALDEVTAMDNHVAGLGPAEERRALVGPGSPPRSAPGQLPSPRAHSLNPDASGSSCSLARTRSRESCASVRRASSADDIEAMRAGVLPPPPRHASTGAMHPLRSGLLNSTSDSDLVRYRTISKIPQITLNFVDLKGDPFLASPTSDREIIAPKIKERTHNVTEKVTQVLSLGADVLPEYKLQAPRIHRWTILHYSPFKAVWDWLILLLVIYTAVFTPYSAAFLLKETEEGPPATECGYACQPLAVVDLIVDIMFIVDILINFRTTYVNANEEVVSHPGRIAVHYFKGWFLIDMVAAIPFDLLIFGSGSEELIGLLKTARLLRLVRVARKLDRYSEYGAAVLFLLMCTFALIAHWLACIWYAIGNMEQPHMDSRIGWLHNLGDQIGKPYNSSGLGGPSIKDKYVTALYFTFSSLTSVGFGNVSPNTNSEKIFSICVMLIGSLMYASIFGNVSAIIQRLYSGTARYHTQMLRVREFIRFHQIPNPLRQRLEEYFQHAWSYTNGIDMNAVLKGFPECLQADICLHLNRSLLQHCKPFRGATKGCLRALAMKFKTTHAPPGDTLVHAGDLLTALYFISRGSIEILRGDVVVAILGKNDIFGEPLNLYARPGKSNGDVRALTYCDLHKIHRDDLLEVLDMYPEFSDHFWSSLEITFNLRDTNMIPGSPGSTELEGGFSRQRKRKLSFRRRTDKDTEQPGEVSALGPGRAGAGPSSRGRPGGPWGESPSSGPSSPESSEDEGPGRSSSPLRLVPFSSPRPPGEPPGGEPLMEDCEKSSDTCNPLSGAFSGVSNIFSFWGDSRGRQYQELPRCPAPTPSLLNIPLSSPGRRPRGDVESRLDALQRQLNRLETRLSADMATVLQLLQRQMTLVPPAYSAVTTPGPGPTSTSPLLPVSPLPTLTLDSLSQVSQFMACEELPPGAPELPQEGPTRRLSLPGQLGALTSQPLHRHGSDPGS

For `O=C(Nc1cccc2c1cc1n2CCOC1)c1ccc(NS(=O)(=O)CCO)cc1N1CCC2(CC1)CC2` [Example 235, N-(3,4-dihydro-1H-[1, 4]oxazino[4,3-a]indol-9-yl)-4-(2-hydroxyethylsulfonamido)-2-(6-azaspiro[2.5]octan-6-yl)benzamide], the pIC50 ([1]; Homo sapiens, HCC1954, 144 h) was at least 8.00 and the pIC50 [2, 3] was 5.01.
Compound `Nc1cc(NS(=O)(=O)CCO)cc(N2CCC3(CC2)CC3)c1C(=O)Nc1cccc(N2CCC(F)(F)CC2)c1` [Example 1, 2-amino-N-(3-(4,4-difluoropiperidin-1-yl)phenyl)-4-((2-hydroxyethyl)sulfonamide)-6-(6-azaspiro[2.5]octan-6-yl)benzamide] has a pIC50 [1] of at least 8.00.
For `O=C(Nc1cccc2c1cc1n2CCOC1)c1ccc(NS(=O)(=O)CCO)cc1N1CCC(=C(F)F)CC1` [Example 319, 2-(4-difluoromethylene)piperidin-1-yl-N-(3,4-dihydro-1H-[1,4]oxazino[4,3-a]indol-9-yl)-4-((2-hydroxyethyl)sulfonamide) benzamide], the pIC50 [1] was 6.30 to 8.00 and the pIC50 [2, 3] was under 5.00.
For `CC1(C)Cn2c(cc3c(NC(=O)c4ccc(NS(=O)(=O)CCO)cc4N4CCC5(CC4)CC5)cccc32)CO1` [Example 371, N-(3,3-dimethyl-3,4-dihydro-1H-[1,4]oxazino[4,3-a]indol-9-yl)-4-(2-hydroxyethylsulfonamido)-2-(6-azaspiro[2.5]octan-6-yl)benzamide], the pIC50 [2, 3] was under 5.00.
`COc1ccc(NC(=O)c2ccc(NS(=O)(=O)CCO)cc2N2CCC3(CC2)CC3)c2cc3n(c12)CC(C)(C)OC3` [Example 455, 4-((2-hydroxyethyl)sulfonamido)-N-(6-methoxy-3,3-dimethyl-3,4-dihydro-1H-[1,4]oxazinyl[4,3-a]indol-9-yl)-2-(6-azaspiro[2.5]oct-6-yl)benzamide] showed a pIC50 [2] of under 5.00.
For `CC1(C)Cn2c(cc3c(NC(=O)c4ccc(NS(=O)(=O)CCO)cc4N4CCC(=C(F)F)CC4)cccc32)CO1` [Example 370, 2-(4-(difluoromethylene)piperidin-1-yl)-N-(3,3-dimethyl-3,4-dihydro-1H-[1,4]oxazino[4,3-a]indol-9-yl)-4-((2-hydroxyethyl)sulfonamido)benzamide], the pIC50 [2, 3] was under 5.00.
In the case of `COc1ccc(NC(=O)c2ccc(NS(=O)(=O)CCO)cc2N2CCC(=C(F)F)CC2)c2cc3n(c12)CC(C)(C)OC3` [Example 465, 2-(4-(difluoromethylene)piperidin-1-yl)-4-((2-hydroxyethyl)sulfonamido)-N-(6-methoxy-3,3-dimethyl-3,4-dihydro-1H-[1,4]oxazinyl[4,3-a]indol-9-yl)benzamide], the pIC50 [2, 3] was under 5.00.
In the case of `CC1(C)Cn2c(cc3c(NC(=O)c4ccc(NS(=O)(=O)CCO)cc4N4CCC5(CC4)CC5)ccc(OC(F)F)c32)CO1` [Example 523], the pIC50 [2, 3] was under 5.00.
`CNc1cc(NS(=O)(=O)CCO)cc(N2CCC3(CC2)CC3)c1C(=O)Nc1cc(C)nc(N2CCC(F)(F)CC2)n1` [Example 4, N-(2-(4,4-difluoropiperidin-1-yl)-6-methylpyrimidin-4-yl)-4-(2-hydroxyethylsulfonamide)-2-methylamino-6-(6-azaspiro[2.5]octan-6-yl)benzamide] showed a pIC50 [1] of at least 8.00.
